These compounds were tested against Sodium-dependent serotonin transporter (Homo sapiens) (UniProt P31645) (assay: Inhibition of human SERT expressed in HEK293 cells using 4-[4-(Dimethylamino)phenyl]-1-methyl pyridinium as substrate assessed as fluorescent intensity at 10 uM after 3 hrs relative to control).
Assay type: cell-based

Chain of Sodium-dependent serotonin transporter (Homo sapiens) (P31645 whole entry, looked up): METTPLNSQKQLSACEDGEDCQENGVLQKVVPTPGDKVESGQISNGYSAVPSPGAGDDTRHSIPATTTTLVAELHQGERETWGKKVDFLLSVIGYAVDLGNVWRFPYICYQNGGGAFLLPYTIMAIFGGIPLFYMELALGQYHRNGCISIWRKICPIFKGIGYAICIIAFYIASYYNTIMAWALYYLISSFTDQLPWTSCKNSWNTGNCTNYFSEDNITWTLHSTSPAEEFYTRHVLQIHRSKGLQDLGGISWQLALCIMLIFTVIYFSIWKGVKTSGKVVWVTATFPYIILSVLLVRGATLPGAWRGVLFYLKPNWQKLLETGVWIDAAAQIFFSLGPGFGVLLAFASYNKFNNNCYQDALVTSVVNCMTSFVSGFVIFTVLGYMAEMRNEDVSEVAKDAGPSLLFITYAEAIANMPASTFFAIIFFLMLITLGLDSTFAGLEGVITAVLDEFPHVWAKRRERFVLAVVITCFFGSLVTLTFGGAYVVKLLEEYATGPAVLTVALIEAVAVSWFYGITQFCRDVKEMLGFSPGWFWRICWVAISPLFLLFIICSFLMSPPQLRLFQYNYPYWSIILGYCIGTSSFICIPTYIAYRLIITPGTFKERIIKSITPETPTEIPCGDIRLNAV

Q: How did the RFU turn out when `COC(=O)CCCNC(=O)/C=C\c1ccc(O)c(OC)c1` was run?
A: The RFU was 1.06.

Q: How did the RFU turn out when `CC(C)C[C@]12C[C@]3(O)O[C@@]1(OC(=O)C[C@H]2C)[C@H](O)[C@]3(C)O` was run?
A: Its RFU is 0.928.

Q: How did the RFU turn out when `COc1cc([C@H]2Oc3c(OC)cc(C(=O)O)cc3[C@@H]2CO)ccc1O` was run?
A: Its RFU is 1.09.

Q: `COC(=O)CCCNC(=O)/C=C/c1ccc(O)c(OC)c1` was tested. Which RFU did it give?
A: Its RFU is 1.04.

Q: For `COc1cc(C[C@@H](CO)c2cc(C(=O)O)cc(OC)c2O)ccc1O`, which RFU is on record?
A: The RFU was 0.873.

Q: `COc1cc([C@@H]2Oc3c(OC)cc(C(=O)O)cc3[C@H]2CO)ccc1O` was tested. Which RFU did it give?
A: Its RFU is 1.06.

These compounds were tested against Sodium-dependent serotonin transporter (Homo sapiens) (UniProt P31645) (assay: Inhibition of human SERT expressed in HEK293 cells using 4-[4-(Dimethylamino)phenyl]-1-methyl pyridinium as substrate assessed as fluorescent intensity at 1 uM after 3 hrs relative to control).
Assay type: cell-based

Q: `CN1c2ccccc2C(NCCCCCCC(=O)O)c2ccc(Cl)cc2S1(=O)=O` (centres undefined) was tested. Which RFU did it give?
A: Its RFU is 1.11.

Q: How did the RFU turn out when `COC(=O)CCCNC(=O)/C=C\c1ccc(O)c(OC)c1` was run?
A: The RFU was 1.08.

Q: How did the RFU turn out when `CC(C)C[C@]12C[C@]3(O)O[C@@]1(OC(=O)C[C@H]2C)[C@H](O)[C@]3(C)O` was run?
A: The RFU was 0.883.

Q: For `COc1cc([C@H]2Oc3c(OC)cc(C(=O)O)cc3[C@@H]2CO)ccc1O`, which RFU is on record?
A: Its RFU is 1.01.

Q: Which RFU does the source give for `COC(=O)CCCNC(=O)/C=C/c1ccc(O)c(OC)c1` here?
A: The RFU was 1.07.

Q: Which RFU does the source give for `COc1cc(C[C@@H](CO)c2cc(C(=O)O)cc(OC)c2O)ccc1O` here?
A: The RFU was 0.997.

Q: How did the RFU turn out when `COc1cc([C@@H]2Oc3c(OC)cc(C(=O)O)cc3[C@H]2CO)ccc1O` was run?
A: The RFU was 1.03.

Each compound was assayed against Sodium-dependent serotonin transporter (Homo sapiens) (UniProt P31645) (assay: Inhibition of human SERT expressed in HEK293 cells using 4-[4-(Dimethylamino)phenyl]-1-methyl pyridinium as substrate assessed as fluorescent intensity at 0.1 uM after 3 hrs relative to control).
Assay type: cell-based

Q: How did the RFU turn out when `COC(=O)CCCNC(=O)/C=C\c1ccc(O)c(OC)c1` was run?
A: The RFU was 1.04.

Q: Which RFU does the source give for `CC(C)C[C@]12C[C@]3(O)O[C@@]1(OC(=O)C[C@H]2C)[C@H](O)[C@]3(C)O` here?
A: The RFU was 0.858.

Q: With `COc1cc([C@H]2Oc3c(OC)cc(C(=O)O)cc3[C@@H]2CO)ccc1O` as the compound, how does the RFU read?
A: Its RFU is 1.04.

Q: With `COC(=O)CCCNC(=O)/C=C/c1ccc(O)c(OC)c1` as the compound, how does the RFU read?
A: Its RFU is 1.02.

Q: For `COc1cc(C[C@@H](CO)c2cc(C(=O)O)cc(OC)c2O)ccc1O`, which RFU is on record?
A: Its RFU is 1.01.

Q: `COc1cc([C@@H]2Oc3c(OC)cc(C(=O)O)cc3[C@H]2CO)ccc1O` was tested. Which RFU did it give?
A: The RFU was 0.984.
